Values after ≈ are worked out from the molar mass of the structure shown. Like-named read-outs stand apart in the source and are kept apart here.
How the values were obtained:
[1] = tested on: E. coli AG100; assay: Resistance modulation (MIC reduction) assay with CIP and TET; assay type: cell-based, Escherichia coli; conditions: antibiotic alone
Method: (§1) The resistance modulation effects of compounds with ciprofloxacin (CIP) and tetracycline (TET) antibiotics were evaluated by the MIC reduction method on the Gram-negative E. coli AG100, AG100 A, and the Gram-positive S. aureus ATCC and MRSA strains.
(§2) The chemosensitizing activity of benzoxazole-type ligands and their metal complexes was determined based on the MIC values of the antibiotics in the presence of sub-inhibitory concentrations of the compounds (¼ MIC) in both Gram-negative and Gram-positive strains. The MICs were determined in strains by the two-fold broth microdilution method in 96-well plates, using serial dilutions of TET and CIP. The first four rows contained two-fold dilutions of antibiotics, and combinations of the TET and CIP and tested compounds were transferred into the last four rows. The 10^−4 dilution of an overnight bacterial culture in 50 μL of MHB was then measured to each well, except for the medium control wells. The plates were kept at 37 °C for 18 h. MIC values of antibiotics and their combination with tested compounds were detected by visual inspection.

[2] = tested on: S. aureus MRSA 272123; assay: as above; assay type: cell-based, Staphylococcus aureus; conditions: antibiotic alone
Method: as §1, §2

[3] = tested on: E. coli AG100; assay: Real-time ethidium bromide accumulation (efflux pump inhibition, AcrAB-TolC); assay type: cell-based, Escherichia coli; conditions: compounds at ¼ MIC, EB 1 μg/mL, minute 30
Method: (§3) Since multidrug resistance EPs are very important factors contributing to multidrug resistance (MDR) in both Gram-positive and Gram-negative bacteria, the inhibition of these pumps could reverse the resistant phenotype and restore the activity of antibiotics. The effect of compounds on ethidium bromide (EB) accumulation was determined by the automated EB method. This assay was used to determine how much of the fluorescent dye and pump substrate EB was accumulated by the bacterial cells in the presence of the tested compounds. The real-time accumulation of EB was monitored for 30 min in both S. aureus and E. coli strains.
(§4) The accumulation of the efflux pump substrate EB was monitored by the automated EB method using a LightCycler real-time thermocycler (LightCycler 1.5, Roche, Indianapolis, IN, USA). An aliquot of an overnight culture of the S. aureus strains in TSB medium was inoculated into fresh TSB medium, and it was incubated until it reached an optical density (OD) of 0.6 at 600 nm. In the case of E. coli strains, the medium applied in the assay was LB broth; the preparation of the inoculum was similar to the one of S. aureus. The cells were washed with phosphate buffered saline (PBS; pH 7.4) and centrifuged at 13,000 × g for 3 min, the pellets were re-suspended in PBS (pH 7.4), and the OD was calibrated to 0.6 at 600 nm. The compounds were measured at ¼ MIC concentration (in double-concentrated form) to the EB solution in PBS. The final concentration of EB was determined according to the MIC and the fluorescent signal produced by this amount of EB. In the case of all strains, the concentration of EB was 1 μg/mL. Then, 10 μL of the EB solution plus the compound were pipetted into standard glass capillary tubes of 20 µL maximum volume (Roche, Indianapolis, USA), and 10 μL of bacterial culture (OD of 0.6 at 600 nm) were transferred to the capillaries. The capillaries containing the samples were placed into the carousel, and the fluorescence was monitored at the FL-2 channel in every minute on a real-time basis.
(§5) Based on the data obtained, the relative fluorescence index (RFI) of the last time point (minute 30) was determined as follows:RFI = (RFtreated − RFuntreated)/RFuntreated(1) where RFtreated is the relative fluorescence (RF) at the last time point of the EB retention curve in the presence of an inhibitor, and RFuntreated is the relative fluorescence at the last time point of the EB retention curve of the untreated control having the solvent control (DMSO).

[4] = tested on: E. coli AG100 A; assay: Real-time ethidium bromide accumulation (efflux pump inhibition); assay type: cell-based, Escherichia coli; conditions: compounds at ¼ MIC, EB 1 μg/mL, minute 30
Method: as §3, §4, §5

[5] = tested on: S. aureus ATCC 25923; assay: as above; assay type: cell-based, Staphylococcus aureus; conditions: compounds at ¼ MIC, EB 1 μg/mL, minute 30
Method: as §3, §4, §5

[6] = tested on: Staphylococcus aureus ATCC 25923; assay: Minimum inhibitory concentration (broth microdilution, CLSI); assay type: cell-based; conditions: Staphylococcus aureus, ATCC25923; S. aureus ATCC 25923; 18 h, visual inspection
Method: (§6) The compounds were further investigated against two Gram-positive strains, S. aureus ATCC 25923 (MSSA), used as the methicillin susceptible reference strain, and the methicillin- and ofloxacin-resistant S. aureus 272123 clinical isolate (MRSA), which was given by Prof. Dr. Leonard Amaral (Institute of Hygiene and Tropical Medicine, Lisbon, Portugal).
(§7) The minimum inhibitory concentrations (MICs) of compounds were determined in 96-well plates based on the Clinical and Laboratory Standard Institute guidelines (CLSI guidelines). The compounds were diluted in 100 μL of MHB. Then, 10^−4 dilution of an overnight bacterial culture in 100 μL of medium were added to each well, with the exception of the medium control wells.

[7] = tested on: E. coli AG100; assay: as above; assay type: cell-based, Escherichia coli; conditions: Escherichia coli
Method: The strains were donated by Prof. Dr. Hiroshi Nikaido (Department of Molecular and Cell Biology and Chemistry, University of California, Berkeley, CA, USA).
as §7

[8] = tested on: S. aureus 272123 (MRSA); assay: as above; assay type: cell-based, Staphylococcus aureus; conditions: 18 h, visual inspection
Method: as §6, §7

[9] = tested on: Enterobacter cloacae 31298; assay: as above; assay type: cell-based; conditions: Enterobacter cloacae; E. cloacae 31298
Method: (§8) The following bacterial strains were applied in the QS tests: C. violaceum 026 as sensor strain and E. cloacae 31298 isolated from clinical wound (used as N-acyl-homoserine lactone (AHL) producer); this strain induced pigment production by C. violaceum and is a model strain to study QS interactions.
as §7

[10] = tested on: Chromobacterium violaceum 026; assay: as above; assay type: cell-based; conditions: Chromobacterium violaceum; C. violaceum 026
Method: as §8, §7

[11] = tested on: MRC-5 human embryonal lung fibroblast cell line; assay: Cytotoxicity assay (MTT); assay type: cell-based; conditions: for Cytotoxic effect (class in words): 24 h; for IC50: Homo sapiens, MRC5, 24 h
Method: The MRC-5 human embryonic lung fibroblast cell line (ATCC CCL-171; provider: LGC Promochem, Teddington, UK) was used in the experiments. The cells were cultivated in Eagle’s Minimal Essential Medium (EMEM; Sigma–Aldrich, St. Louis, MO, USA), supplemented with 1% non-essential amino acid mixture, 10% heat-inactivated fetal bovine serum, 2 mM L-glutamine, 1 mM Na-pyruvate, nystatin, and a penicillin–streptomycin mixture in concentrations of 100 U/L and 10 mg/L, respectively. The supplementary components were obtained from Sigma–Aldrich, St. Louis, MO, USA. The cell culture was kept in a humidified atmosphere (5% CO2, 95% air) at 37 °C.
The activity of increasing concentrations of the compounds on cell growth was determined in 96-well flat-bottomed microtiter plates by two-fold serial dilutions of the benzoxazole derivatives. The adherent human embryonic lung fibroblast cells (10^4/well) was seeded in EMEM medium in 96-well microtiter plates for 4 h prior to the assay. The serial dilutions of the compounds were made in a separate plate, and then pipetted to the plates containing the MRC-5 cell line. Culture plates were incubated at 37 °C for 24 h; at the end of the incubation period, 20 μL of MTT (3-(4,5-dimethylthiazol-2-yl)-2,5-diphenyltetrazolium bromide) solution (from a 5 mg/mL stock solution) was measured to each well. After the incubation at 37 °C for 4 h, 100 μL of sodium dodecyl sulfate (SDS) solution (10% SDS in 0.01 M HCl) was added to each well to dissolve the formazan crystals and the samples were further incubated at 37 °C overnight. Cell growth was calculated by measuring the OD at 540 nm (ref. 630 nm) with a Multiscan EX ELISA reader. The cytotoxicity was expressed as IC50 values, defined as the inhibitory dose that reduces the growth of the cells exposed to the tested compounds by 50%.

[12] = tested on: S. aureus 272123 (MRSA); assay: Real-time ethidium bromide accumulation (efflux pump inhibition); assay type: cell-based, Staphylococcus aureus; conditions: compounds at ¼ MIC (3 at 12.5 µM), VER at 25 µM, EB 1 μg/mL, minute 30
Method: as §3, §4, §5

[13] = tested on: E. coli AG100 A; assay: Minimum inhibitory concentration (broth microdilution, CLSI); assay type: cell-based, Escherichia coli; conditions: Escherichia coli, AG100A, 18 h
Method: Wild-type E. coli K-12 AG100 strain (argE3 thi-1 rpsL xyl mtl Δ(gal-uvrB) supE44) expressing the AcrAB TolC EP at its basal level and its AcrAB-TolC deleted mutant E. coli K-12 AG100 A strain. The strains were donated by Prof. Dr. Hiroshi Nikaido (Department of Molecular and Cell Biology and Chemistry, University of California, Berkeley, CA, USA).
as §7

Structure (SMILES) | MIC of antibiotic in the absence of the compounds [1] | MIC of antibiotic in the absence of the compounds [2] | Relative fluorescence index (RFI) [3] | Relative fluorescence index (RFI) [4] | Relative fluorescence index (RFI) [5] | MIC [6] | MIC ([7]; AG100, 18 h) | MIC [8] | MIC ([8]; Staphylococcus aureus) | MIC [9] | MIC [10] | Cytotoxic effect (class in words) [11] | IC50 [11] | Relative fluorescence index (RFI) [12] | MIC [13] | MIC ([7]; E. coli AG100, 18 h, visual inspection, read-out: MIC)
O=C(O)c1cn(C2CC2)c2cc(N3CCNCC3)c(F)cc2c1=O [CIP, ciprofloxacin, reference compound] | 0.016 µM | 12.5 µM |  |  |  |  |  |  |  |  |  |  |  |  |  | 
CN(C)CCCN1c2ccccc2Sc2ccc(Cl)cc21 [CPZ, Chlorpromazine, reference compound] |  |  | 0.38 | 0.48 | 0.17 |  |  |  |  |  |  |  |  |  |  | 
O=C(Cc1nc2ccccc2o1)C(F)(F)F [Compound 1, 2-trifluoroacetonylbenzoxazole] |  |  | −0.35 | 0 | −0.11 | 25 µM (≈ 5.73 µg/mL) | 50 µM (≈ 11.5 µg/mL) | 12.5 µM (≈ 2.86 µg/mL) | 12.5 µM (≈ 2.86 µg/mL) | > 100 µM | > 100 µM | no (IC50 > 100 µM) | > 100 µM | −0.14 | 50 µM (≈ 11.5 µg/mL) | 
O=C(Cc1nc2ccccc2o1)C(F)(F)Cl [Compound 2] |  |  | 0.17 | −0.01 | −0.07 | 12.5 µM (≈ 3.07 µg/mL) |  | 3.125 µM (≈ 0.768 µg/mL) | 3.12 µM (≈ 0.768 µg/mL) | > 100 µM | > 100 µM | no (IC50 > 100 µM) | > 100 µM | −0.07 | 25 µM (≈ 6.14 µg/mL) | 50 µM (≈ 12.3 µg/mL)

Source: PMC7600679, “Benzoxazole-Based Metal Complexes to Reverse Multidrug Resistance in Bacteria” (Antibiotics, 2020)
